Measured values as given in patent publication US20060069132A1, “Azolecarboxamide herbicides” (priority 2004, published 2006).

How the values were obtained:
[1] = tested on: morningglory; assay: Test B pre-/postemergence herbicide test; format: in vivo, Ipomoea coccinea; settings: for Morningglory plant response rating: postemergence, visual rating, scale 0 (no effect) to 100 (complete control)
Method in brief: (§1)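 Flooded paddy rice and barnyardgrass were treated at the 2-leaf stage; upland plantings received compound either on sown seed or on 1- to 4-leaf seedlings. All were kept 13–15 days in a greenhouse and scored visually, 0–100, relative to untreated plants.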

[2] = tested on: barnyardgrass; assay: Test C flooded paddy test; format: in vivo, Echinochloa crus-galli
Method in brief: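 Greenhouse test with a 12–14 day hold after application and visual comparison with controls. Emerged plants were 1- to 4-leaf stage (2–18 cm) when sprayed postemergence, and the paddy barnyardgrass was at 2 leaves under flooded conditions. 100 = complete control.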

[3] = tested on: smallflower umbrella sedge; assay: Test C flooded paddy test; format: in vivo, Cyperus difformis
[4] = tested on: wild oat; assay: Test B postemergence herbicide test; format: in vivo, Avena fatua; settings: postemergence, visual rating, scale 0 (no effect) to 100 (complete control)
Method in brief: (§2)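 Formulated test chemicals went onto postemergence plants measuring 2 to 18 cm, at one to four leaves. For the paddy assay, species had reached two leaves. Scoring took place 13–15 days later by eye, relative to untreated plants, using 0 for no effect up to 100 for full control.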

[5] = tested on: rice; assay: Test B flooded paddy test; format: in vivo, Oryza sativa; settings: 1000 g ai/ha, visual rating, scale 0 to 100 (0 no effect, 100 complete control), 13 to 15 days
Method in brief: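 Visual ratings, 0 (no effect) to 100 (complete control), made versus controls after 13–15 d greenhouse. Paddy plants treated at 2-leaf stage; postemergence plants at 1- to 4-leaf stage, 2–18 cm tall.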

[6] = tested on: rice; assay: Test C flooded paddy test; format: in vivo, Oryza sativa
Method in brief: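 Postemergence sprays applied to plants 2 to 18 cm tall (1- to 4-leaf stage); paddy species grown to 2-leaf stage under flooding. After 12 to 14 days in greenhouse, visual rating versus untreated controls on 0–100 scale (0 no effect, 100 complete control).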

[7] = tested on: wheat; assay: Test B postemergence herbicide test; format: in vivo, Triticum aestivum; design: key to Wheat plant response rating: 0 = no effect, 100 = complete control; settings: postemergence, visual rating, scale 0 (no effect) to 100 (complete control)
Method in brief: as §2

[8] = tested on: giant foxtail; assay: Test B pre-/postemergence herbicide test; format: in vivo, Setaria faberi; settings: for Foxtail, Giant plant response rating: postemergence, scale 0 (no effect) to 100 (complete control)
Method in brief: (§3)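 Seeds were planted and treated preemergence with compounds formulated in a non-phytotoxic solvent mixture containing surfactant, while plants at the 1- to 4-leaf stage (2 to 18 cm) received postemergence sprays. Flooded paddy plants were grown to the 2-leaf stage. After 13 to 15 days in a greenhouse, injury was visually rated 0–100 against untreated controls.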

[9] = tested on: pigweed; assay: Test B pre-/postemergence herbicide test; format: in vivo, Amaranthus retroflexus; settings: for Pigweed plant response rating: postemergence, scale 0 (no effect) to 100 (complete control)
Method in brief: as §3

[10] = tested on: cocklebur; assay: Test B pre-/postemergence herbicide test; format: in vivo, Xanthium strumarium; settings: for Cocklebur plant response rating: postemergence, scale 0 (no effect) to 100 (complete control)
Method in brief: as §1

[11] = tested on: corn; assay: Test B pre-/postemergence herbicide test; format: in vivo, Zea mays; settings: for Corn plant response rating: postemergence, scale 0 (no effect) to 100 (complete control)
Method in brief: as §3

[12] = tested on: barnyardgrass; assay: Test B pre-/postemergence herbicide test; format: in vivo, Echinochloa crus-galli; settings: for Barnyardgrass plant response rating: postemergence, scale 0 (no effect) to 100 (complete control)
Method in brief: as §1

[13] = tested on: velvetleaf; assay: Test B pre-/postemergence herbicide test; format: in vivo, Abutilon theophrasti; settings: for Velvetleaf plant response rating: postemergence, scale 0 (no effect) to 100 (complete control)
Method in brief: as §3

[14] = tested on: small flower umbrella sedge; assay: Test B flooded paddy test; format: in vivo, Cyperus difformis; settings: 1000 g ai/ha, visual rating, scale 0 to 100 (0 no effect, 100 complete control), 13 to 15 days
Method in brief: (§4)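 After treating 2-leaf paddy plants or 2–18 cm postemergence plants (1 to 4 leaves) with formulated chemical, researchers kept them in a greenhouse for 13–15 days. Effects were judged visually versus controls: 0 indicates none, 100 total control.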

[15] = tested on: blackgrass; assay: Test B postemergence herbicide test; format: in vivo, Alopecurus myosuroides; settings: postemergence, visual rating, scale 0 (no effect) to 100 (complete control)
Method in brief: as §4

[16] = tested on: Surinam grass; assay: Test B pre-/postemergence herbicide test; format: in vivo, Urochloa decumbens; settings: for Surinam Grass plant response rating: postemergence, scale 0 (no effect) to 100 (complete control)
Method in brief: as §3

[17] = tested on: large crabgrass; assay: Test B pre-/postemergence herbicide test; format: in vivo, Digitaria sanguinalis; settings: for Crabgrass, Large plant response rating: postemergence, scale 0 (no effect) to 100 (complete control)
Method in brief: as §3

[18] = tested on: ducksalad; assay: Test B flooded paddy test; format: in vivo, Heteranthera limosa; settings: 1000 g ai/ha, visual rating, scale 0 to 100 (0 no effect, 100 complete control), 13 to 15 days
Method in brief: as §4

[19] = tested on: ducksalad; assay: Test C flooded paddy test; format: in vivo, Heteranthera limosa
[20] = tested on: rice; assay: Test B pre-/postemergence herbicide test; format: in vivo, Oryza sativa; settings: 0 = no effect, 100 = complete control, preemergence
Method in brief: as §3

[21] = tested on: barnyardgrass; assay: Test B flooded paddy test; format: in vivo, Echinochloa crus-galli; settings: 1000 g ai/ha, visual rating, scale 0 to 100 (0 no effect, 100 complete control), 13 to 15 days
Method in brief: as §4

[22] = tested on: lambsquarters; assay: Test B pre-/postemergence herbicide test; format: in vivo, Chenopodium album; settings: for Lambsquarters plant response rating: postemergence, scale 0 (no effect) to 100 (complete control)
Method in brief: as §3

[23] = 125 g ai/ha, 0 = no effect, 100 = complete control, preemergence
[24] = 62 g ai/ha, scale 0 to 100 (0 no effect, 100 complete control)
[25] = 125 g ai/ha, scale 0 to 100 (0 no effect, 100 complete control)
[26] = 250 g ai/ha, scale of 0 to 100, 0 is no effect, 100 is complete control
[27] = 500 g ai/ha, visual rating after 12 to 14 days, scale 0 to 100 (0 no effect, 100 complete control)
[28] = 500 g ai/ha, visual rating, 0 = no effect, 100 = complete control, preemergence

CCNC(=O)c1cccc(NC(=O)c2nn(C(C)(C)C)cc2Cl)c1 [Compound 219]
Morningglory plant response rating (0 to 100 scale) [1, 23]: 0 | Morningglory plant response rating ([1]; 125 g ai/ha): 0 | Morningglory plant response rating ([1]; 500 g ai/ha): 60 | Barnyardgrass plant response rating [2, 24]: 0 | Barnyardgrass plant response rating [2, 25]: 0 | Barnyardgrass plant response rating [2, 26]: 0 | Plant response rating, Barnyardgrass [2, 27]: 0 | Sedge, Umbrella plant response rating [3, 24]: 0 | Sedge, Umbrella plant response rating [3, 25]: 0 | Sedge, Umbrella plant response rating [3, 26]: 0 | Plant response rating, Sedge, Umbrella [3, 27]: 20 | Oat, Wild plant response rating ([4]; 125 g ai/ha): 0 | Oat, Wild plant response rating ([4]; 500 g ai/ha): 0 | Rice plant response rating [5]: 0 | Rice plant response rating [6, 24]: 0 | Rice plant response rating [6, 25]: 0 | Rice plant response rating [6, 26]: 0 | Plant response rating, Rice [6, 27]: 0 | Wheat plant response rating ([7]; 125 g ai/ha): 0 | Wheat plant response rating ([7]; 500 g ai/ha): 0 | Foxtail, Giant plant response rating (0 to 100 scale) [8, 23]: 0 | Plant response rating, Foxtail, Giant [8, 28]: 0 | Foxtail, Giant plant response rating ([8]; 125 g ai/ha, visual rating): 0 | Foxtail, Giant plant response rating ([8]; 500 g ai/ha, visual rating): 10 | Pigweed plant response rating (0 to 100 scale) [9, 23]: 0 | Plant response rating, Pigweed [9, 28]: 80 | Pigweed plant response rating ([9]; 125 g ai/ha, visual rating): 10 | Pigweed plant response rating ([9]; 500 g ai/ha, visual rating): 20 | Cocklebur plant response rating (0 to 100 scale) [10, 23]: 0 | Plant response rating, Cocklebur [10, 28]: 0 | Cocklebur plant response rating ([10]; 125 g ai/ha, visual rating): 0 | Cocklebur plant response rating ([10]; 500 g ai/ha, visual rating): 20 | Corn plant response rating (0 to 100 scale) [11, 23]: 0 | Plant response rating, Corn [11, 28]: 0 | Corn plant response rating ([11]; 125 g ai/ha, visual rating): 0 | Corn plant response rating ([11]; 500 g ai/ha, visual rating): 10 | Barnyardgrass plant response rating (0 to 100 scale) [12, 23]: 0 | Plant response rating, Barnyardgrass [12, 28]: 20 | Barnyardgrass plant response rating ([12]; 125 g ai/ha, visual rating): 0 | Barnyardgrass plant response rating ([12]; 500 g ai/ha, visual rating): 0 | Velvetleaf plant response rating (0 to 100 scale) [13, 23]: 0 | Plant response rating, Velvetleaf [13, 28]: 10 | Velvetleaf plant response rating ([13]; 125 g ai/ha, visual rating): 0 | Velvetleaf plant response rating ([13]; 500 g ai/ha, visual rating): 10 | Sedge, Umbrella plant response rating [14]: 80 | Blackgrass plant response rating ([15]; 125 g ai/ha): 0 | Blackgrass plant response rating ([15]; 500 g ai/ha): 0 | Surinam Grass plant response rating (0 to 100 scale) [16, 23]: 0 | Plant response rating, Surinam Grass [16, 28]: 0 | Surinam Grass plant response rating ([16]; 125 g ai/ha, visual rating): 0 | Surinam Grass plant response rating ([16]; 500 g ai/ha, visual rating): 10 | Crabgrass, Large plant response rating (0 to 100 scale) [17, 23]: 0 | Plant response rating, Crabgrass, Large [17, 28]: 100 | Crabgrass, Large plant response rating ([17]; 125 g ai/ha, visual rating): 0 | Crabgrass, Large plant response rating ([17]; 500 g ai/ha, visual rating): 10 | Ducksalad plant response rating [18]: 80 | Ducksalad plant response rating [19, 25]: 0 | Ducksalad plant response rating [19, 26]: 0 | Plant response rating, Ducksalad [19, 27]: 0 | Rice plant response rating (0 to 100 scale) ([20]; 125 g ai/ha): 0 | Plant response rating, Rice ([20]; 500 g ai/ha, visual rating): 0 | Barnyardgrass plant response rating [21]: 0 | Lambsquarters plant response rating (0 to 100 scale) [22, 23]: 0 | Plant response rating, Lambsquarters [22, 28]: 0 | Lambsquarters plant response rating ([22]; 125 g ai/ha, visual rating): 0 | Lambsquarters plant response rating ([22]; 500 g ai/ha, visual rating): 10
